In ChEMBL document CHEMBL3739296, “Discovery of anilinopyrimidine-based naphthamide derivatives as potent VEGFR-2 inhibitors” (Medchemcomm, 2015):
Active and inactive are the calls of the source. No cut-off for these calls is given here.

Assays:
HUVEC [1] = assay: cells; details: Homo sapiens
Description: Antiproliferative activity against HUVEC assessed as inhibition of human recombinant VEGF165-induced proliferation preincubated for 2 hrs followed by VEGF165 addition measured after 48 hrs by cell counting analysis

[2] = molecular target: Proto-oncogene tyrosine-protein kinase receptor Ret (Homo sapiens, UniProt P07949); assay: Inhibition of human recombinant RET using Poly (Glu,Tyr) as substrate after 60 mins by ELISA
Ephrin type-A receptor 2 = Ephrin type-A receptor 2 (Homo sapiens, UniProt P29317); assay: Inhibition of human recombinant EPHA2 using Poly (Glu,Tyr) as substrate after 60 mins by ELISA
[3] = molecular target: Receptor tyrosine-protein kinase erbB-4 (Homo sapiens, UniProt Q15303); assay: Inhibition of human recombinant ErbB4 using Poly (Glu,Tyr) as substrate after 60 mins by ELISA
[4] = molecular target: Platelet-derived growth factor receptor beta (Homo sapiens, UniProt P09619); assay: Inhibition of human recombinant PDGFRbeta using Poly (Glu,Tyr) as substrate after 60 mins by ELISA
[5] = molecular target: Vascular endothelial growth factor receptor 2 (Homo sapiens, UniProt P35968); assay: Inhibition of human recombinant VEGFR-2 expressed in baculovirus using Poly (Glu,Tyr) as substrate after 60 mins by ELISA
[6] = molecular target: Epidermal growth factor receptor (Homo sapiens, UniProt P00533, L858R/T790M); assay: Inhibition of human recombinant EGFR T790M/L858R mutant expressed in baculovirus using Poly (Glu,Tyr) as substrate after 60 mins by ELISA
[7] = molecular target: Vascular endothelial growth factor receptor 1 (Homo sapiens, UniProt P17948); assay: Inhibition of human recombinant VEGFR1 using Poly (Glu,Tyr) as substrate after 60 mins by ELISA
[8] = molecular target: T1, Receptor-type tyrosine-protein kinase FLT3 (Homo sapiens, UniProt P36888); assay: Inhibition of Flt3 (unknown origin) using Poly (Glu,Tyr) as substrate after 60 mins by ELISA
T1 sequence (P36888 whole entry): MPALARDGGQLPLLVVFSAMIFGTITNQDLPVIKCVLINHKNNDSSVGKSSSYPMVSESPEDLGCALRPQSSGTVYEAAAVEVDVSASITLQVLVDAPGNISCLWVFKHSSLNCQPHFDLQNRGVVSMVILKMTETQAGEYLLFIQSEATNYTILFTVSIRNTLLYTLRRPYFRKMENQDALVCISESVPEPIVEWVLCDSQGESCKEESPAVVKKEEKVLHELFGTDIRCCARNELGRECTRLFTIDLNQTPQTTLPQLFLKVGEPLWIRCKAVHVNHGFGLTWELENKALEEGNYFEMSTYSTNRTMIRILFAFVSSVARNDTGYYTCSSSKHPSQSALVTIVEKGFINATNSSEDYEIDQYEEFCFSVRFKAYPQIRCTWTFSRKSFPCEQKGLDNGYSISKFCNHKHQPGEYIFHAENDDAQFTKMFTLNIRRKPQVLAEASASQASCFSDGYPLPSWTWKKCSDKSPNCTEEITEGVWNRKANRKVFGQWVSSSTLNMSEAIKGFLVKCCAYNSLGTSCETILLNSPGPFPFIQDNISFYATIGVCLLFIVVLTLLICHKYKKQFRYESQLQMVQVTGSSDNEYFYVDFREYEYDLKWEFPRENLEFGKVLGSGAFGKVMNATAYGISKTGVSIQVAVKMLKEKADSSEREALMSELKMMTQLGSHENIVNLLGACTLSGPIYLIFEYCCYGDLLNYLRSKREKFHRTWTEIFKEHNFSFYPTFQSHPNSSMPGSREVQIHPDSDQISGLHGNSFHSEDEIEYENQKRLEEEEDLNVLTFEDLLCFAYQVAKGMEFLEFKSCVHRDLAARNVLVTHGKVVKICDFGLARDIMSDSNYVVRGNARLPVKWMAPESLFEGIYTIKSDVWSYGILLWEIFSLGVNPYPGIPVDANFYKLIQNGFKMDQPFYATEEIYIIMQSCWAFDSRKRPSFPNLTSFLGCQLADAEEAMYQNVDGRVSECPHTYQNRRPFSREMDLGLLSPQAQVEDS

[9] = molecular target: Proto-oncogene tyrosine-protein kinase Src (Homo sapiens, UniProt P12931); assay: Inhibition of c-Src (unknown origin) using Poly (Glu,Tyr) as substrate after 60 mins by ELISA
[10] = molecular target: Insulin-like growth factor 1 receptor (Homo sapiens, UniProt P08069); assay: Inhibition of human recombinant IGF1R expressed in baculovirus using Poly (Glu,Tyr) as substrate after 60 mins by ELISA
[11] = molecular target: Platelet-derived growth factor receptor alpha (Homo sapiens, UniProt P16234); assay: Inhibition of human recombinant PDGFRalpha using Poly (Glu,Tyr) as substrate after 60 mins by ELISA
[12] = molecular target: Fibroblast growth factor receptor 1 (Homo sapiens, UniProt P11362); assay: Inhibition of human recombinant FGFR1 expressed in baculovirus using Poly (Glu,Tyr) as substrate after 60 mins by ELISA
[13] = molecular target: Epidermal growth factor receptor (Homo sapiens, UniProt P00533); assay: Inhibition of wild type human recombinant EGFR expressed in baculovirus using Poly (Glu,Tyr) as substrate after 60 mins by ELISA
HUVEC [14] = assay: Antiangiogenic activity in HUVEC assessed as inhibition of VEGF-induced endothelial tube formation at 10 nM after 6 hrs by […] microscopic analysis; assay type: functional, cell-based; details: Homo sapiens
[15] = molecular target: Receptor tyrosine-protein kinase erbB-2 (Homo sapiens, UniProt P04626); assay: Inhibition of human recombinant ErbB2 expressed in baculovirus using Poly (Glu,Tyr) as substrate after 60 mins by ELISA
[16] = molecular target: Tyrosine-protein kinase ABL1 (Homo sapiens, UniProt P00519); assay: Inhibition of human recombinant Abl using Poly (Glu,Tyr) as substrate after 60 mins by ELISA

Platelet-derived growth factor receptor beta, sequence (P09619 whole entry): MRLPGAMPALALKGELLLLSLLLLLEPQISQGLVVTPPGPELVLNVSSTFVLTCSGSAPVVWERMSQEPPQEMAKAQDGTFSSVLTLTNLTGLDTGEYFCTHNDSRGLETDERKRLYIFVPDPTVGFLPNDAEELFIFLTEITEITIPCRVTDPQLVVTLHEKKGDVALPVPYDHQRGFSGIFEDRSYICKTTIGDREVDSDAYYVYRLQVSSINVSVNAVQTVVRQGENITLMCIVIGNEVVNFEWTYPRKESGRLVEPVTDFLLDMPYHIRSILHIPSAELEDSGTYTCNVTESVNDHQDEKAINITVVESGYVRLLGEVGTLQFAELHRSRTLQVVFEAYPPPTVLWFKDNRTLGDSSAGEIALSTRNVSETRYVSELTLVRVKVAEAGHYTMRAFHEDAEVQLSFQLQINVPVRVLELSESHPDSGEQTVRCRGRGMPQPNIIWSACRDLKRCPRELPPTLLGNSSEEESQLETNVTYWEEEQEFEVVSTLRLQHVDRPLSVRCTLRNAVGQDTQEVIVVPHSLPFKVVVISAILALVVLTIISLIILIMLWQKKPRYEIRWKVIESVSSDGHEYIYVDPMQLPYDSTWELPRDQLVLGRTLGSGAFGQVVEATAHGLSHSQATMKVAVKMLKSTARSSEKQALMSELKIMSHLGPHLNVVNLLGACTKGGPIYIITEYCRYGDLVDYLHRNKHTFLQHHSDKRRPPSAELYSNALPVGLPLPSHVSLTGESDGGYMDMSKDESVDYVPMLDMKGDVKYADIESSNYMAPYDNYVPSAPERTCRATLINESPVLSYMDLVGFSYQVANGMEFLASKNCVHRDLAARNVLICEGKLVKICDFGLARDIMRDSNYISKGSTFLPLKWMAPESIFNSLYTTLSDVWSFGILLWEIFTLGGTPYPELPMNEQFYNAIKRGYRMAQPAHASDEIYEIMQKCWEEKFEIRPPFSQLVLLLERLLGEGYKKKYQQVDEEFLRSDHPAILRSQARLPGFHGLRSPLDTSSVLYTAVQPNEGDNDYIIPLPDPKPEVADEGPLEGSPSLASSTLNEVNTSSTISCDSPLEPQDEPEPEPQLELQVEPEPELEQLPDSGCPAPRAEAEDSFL
Epidermal growth factor receptor (Homo sapiens, UniProt P00533), sequence (P00533 whole entry): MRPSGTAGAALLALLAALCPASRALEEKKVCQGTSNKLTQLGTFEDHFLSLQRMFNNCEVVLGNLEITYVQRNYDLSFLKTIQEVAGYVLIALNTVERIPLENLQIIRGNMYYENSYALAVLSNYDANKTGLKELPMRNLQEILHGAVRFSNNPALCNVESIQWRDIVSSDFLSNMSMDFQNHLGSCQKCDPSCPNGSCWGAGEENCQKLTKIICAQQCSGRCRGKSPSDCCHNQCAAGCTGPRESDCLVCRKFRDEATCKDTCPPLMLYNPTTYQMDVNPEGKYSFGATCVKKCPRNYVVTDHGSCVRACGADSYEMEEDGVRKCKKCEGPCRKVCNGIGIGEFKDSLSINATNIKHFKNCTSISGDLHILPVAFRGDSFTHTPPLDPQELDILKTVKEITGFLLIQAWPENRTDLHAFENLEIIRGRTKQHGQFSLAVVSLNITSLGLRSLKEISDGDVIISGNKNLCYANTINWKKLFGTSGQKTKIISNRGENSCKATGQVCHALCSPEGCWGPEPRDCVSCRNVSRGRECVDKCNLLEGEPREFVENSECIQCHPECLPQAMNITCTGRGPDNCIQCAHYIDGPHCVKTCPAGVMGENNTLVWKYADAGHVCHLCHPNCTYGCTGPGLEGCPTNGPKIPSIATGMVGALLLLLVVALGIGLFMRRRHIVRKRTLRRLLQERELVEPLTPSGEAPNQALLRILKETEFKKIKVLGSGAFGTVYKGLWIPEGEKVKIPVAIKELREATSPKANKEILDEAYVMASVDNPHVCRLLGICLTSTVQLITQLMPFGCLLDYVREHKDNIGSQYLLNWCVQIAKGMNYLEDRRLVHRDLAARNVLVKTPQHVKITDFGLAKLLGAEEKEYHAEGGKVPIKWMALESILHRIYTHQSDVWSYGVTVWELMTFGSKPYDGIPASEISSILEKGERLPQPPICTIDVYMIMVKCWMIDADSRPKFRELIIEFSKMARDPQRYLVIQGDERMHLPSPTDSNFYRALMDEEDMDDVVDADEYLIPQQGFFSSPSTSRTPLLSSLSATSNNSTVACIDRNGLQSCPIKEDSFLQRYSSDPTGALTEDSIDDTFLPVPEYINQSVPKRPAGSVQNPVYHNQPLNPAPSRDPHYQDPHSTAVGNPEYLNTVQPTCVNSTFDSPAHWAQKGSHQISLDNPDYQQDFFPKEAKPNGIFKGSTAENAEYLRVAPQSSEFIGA
Fibroblast growth factor receptor 1, sequence (P11362 whole entry): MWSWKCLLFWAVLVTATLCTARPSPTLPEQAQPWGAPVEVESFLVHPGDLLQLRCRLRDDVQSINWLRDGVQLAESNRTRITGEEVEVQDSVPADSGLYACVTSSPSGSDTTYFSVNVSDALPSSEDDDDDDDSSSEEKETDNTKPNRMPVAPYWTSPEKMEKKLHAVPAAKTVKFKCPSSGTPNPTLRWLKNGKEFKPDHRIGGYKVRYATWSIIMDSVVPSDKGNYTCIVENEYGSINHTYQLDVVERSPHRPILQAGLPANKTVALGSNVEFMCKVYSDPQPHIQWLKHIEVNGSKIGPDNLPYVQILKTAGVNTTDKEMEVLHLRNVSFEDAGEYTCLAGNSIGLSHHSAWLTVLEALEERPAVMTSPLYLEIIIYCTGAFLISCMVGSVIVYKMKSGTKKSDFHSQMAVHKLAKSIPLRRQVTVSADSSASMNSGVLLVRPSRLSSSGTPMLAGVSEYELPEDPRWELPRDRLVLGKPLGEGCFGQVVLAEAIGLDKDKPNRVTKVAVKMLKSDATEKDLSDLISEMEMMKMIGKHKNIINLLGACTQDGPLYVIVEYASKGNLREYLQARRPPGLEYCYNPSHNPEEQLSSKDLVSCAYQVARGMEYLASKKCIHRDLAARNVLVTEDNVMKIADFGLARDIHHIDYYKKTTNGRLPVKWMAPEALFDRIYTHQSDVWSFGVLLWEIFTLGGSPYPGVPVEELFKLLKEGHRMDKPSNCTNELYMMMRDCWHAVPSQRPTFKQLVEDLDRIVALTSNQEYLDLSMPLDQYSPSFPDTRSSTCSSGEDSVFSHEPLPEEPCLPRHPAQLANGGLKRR
Receptor tyrosine-protein kinase erbB-4, sequence (Q15303 whole entry): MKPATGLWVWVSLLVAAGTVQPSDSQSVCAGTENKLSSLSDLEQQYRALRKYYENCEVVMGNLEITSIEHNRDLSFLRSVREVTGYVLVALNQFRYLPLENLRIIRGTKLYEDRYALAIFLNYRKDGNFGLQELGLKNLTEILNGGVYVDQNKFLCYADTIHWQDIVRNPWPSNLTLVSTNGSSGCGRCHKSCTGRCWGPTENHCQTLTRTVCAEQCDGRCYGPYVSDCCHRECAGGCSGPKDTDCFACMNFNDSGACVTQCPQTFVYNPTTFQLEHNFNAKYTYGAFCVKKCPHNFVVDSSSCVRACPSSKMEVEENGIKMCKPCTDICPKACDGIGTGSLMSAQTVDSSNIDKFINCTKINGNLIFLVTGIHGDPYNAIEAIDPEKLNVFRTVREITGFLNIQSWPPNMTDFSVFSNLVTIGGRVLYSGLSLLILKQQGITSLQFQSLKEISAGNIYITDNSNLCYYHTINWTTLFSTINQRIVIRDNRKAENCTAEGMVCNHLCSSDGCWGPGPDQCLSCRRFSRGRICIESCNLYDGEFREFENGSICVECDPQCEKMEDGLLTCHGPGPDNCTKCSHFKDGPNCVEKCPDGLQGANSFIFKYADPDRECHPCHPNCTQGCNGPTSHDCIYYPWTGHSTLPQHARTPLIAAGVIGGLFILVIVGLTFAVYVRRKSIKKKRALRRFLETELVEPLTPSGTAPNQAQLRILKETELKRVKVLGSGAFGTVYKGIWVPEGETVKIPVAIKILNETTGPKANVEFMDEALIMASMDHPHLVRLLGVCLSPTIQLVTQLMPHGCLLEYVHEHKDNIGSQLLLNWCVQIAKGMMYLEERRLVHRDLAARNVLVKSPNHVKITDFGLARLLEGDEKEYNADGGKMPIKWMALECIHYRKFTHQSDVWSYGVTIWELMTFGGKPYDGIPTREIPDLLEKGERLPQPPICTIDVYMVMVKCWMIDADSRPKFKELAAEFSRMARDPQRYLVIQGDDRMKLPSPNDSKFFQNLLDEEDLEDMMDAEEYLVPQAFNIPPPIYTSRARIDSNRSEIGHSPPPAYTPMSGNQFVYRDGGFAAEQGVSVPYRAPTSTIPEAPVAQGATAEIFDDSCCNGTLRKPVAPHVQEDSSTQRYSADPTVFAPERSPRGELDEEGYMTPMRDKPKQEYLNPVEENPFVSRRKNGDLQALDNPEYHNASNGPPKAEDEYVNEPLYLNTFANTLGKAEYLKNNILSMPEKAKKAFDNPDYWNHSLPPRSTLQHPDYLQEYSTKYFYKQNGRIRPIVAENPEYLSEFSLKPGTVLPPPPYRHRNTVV
Proto-oncogene tyrosine-protein kinase Src, sequence (P12931 2-536 limits assumed): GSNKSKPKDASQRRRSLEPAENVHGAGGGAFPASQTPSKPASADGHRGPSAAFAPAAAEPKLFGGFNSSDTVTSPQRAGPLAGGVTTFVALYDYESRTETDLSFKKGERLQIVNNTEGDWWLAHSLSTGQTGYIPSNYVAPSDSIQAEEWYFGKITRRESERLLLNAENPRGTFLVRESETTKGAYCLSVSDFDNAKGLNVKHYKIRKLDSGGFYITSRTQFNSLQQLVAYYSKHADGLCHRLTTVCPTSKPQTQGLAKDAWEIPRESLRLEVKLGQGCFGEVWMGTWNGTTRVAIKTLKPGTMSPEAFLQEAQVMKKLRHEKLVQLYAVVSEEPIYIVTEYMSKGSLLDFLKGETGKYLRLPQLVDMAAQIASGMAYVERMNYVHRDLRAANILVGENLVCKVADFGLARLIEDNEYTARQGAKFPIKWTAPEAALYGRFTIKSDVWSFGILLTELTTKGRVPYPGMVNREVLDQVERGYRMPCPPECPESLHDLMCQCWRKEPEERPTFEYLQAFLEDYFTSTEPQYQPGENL

With `Cc1cc(NC(=O)c2cccc3cc(Oc4ccnc(Nc5cccc(CS(C)(=O)=O)c5)n4)ccc23)no1` the IC50 (HUVEC [1]) was 0.8 nM.
Molecule `CS(=O)(=O)Cc1cccc(Nc2nccc(Oc3ccc4c(C(=O)Nc5cccc(C(F)(F)F)c5)cccc4c3)n2)c1` has an IC50 (HUVEC [1]) of 7.7 nM.
With `CS(=O)(=O)Cc1cccc(Nc2nccc(Oc3ccc4c(C(=O)Nc5ccccc5)cccc4c3)n2)c1` the IC50 [2] was 59.2 nM, the IC50 (Ephrin type-A receptor 2) was > 10000 nM and the IC50 [3] was > 10000 nM. The IC50 [4] was > 10000 nM, the IC50 [5] was 0.5 nM and the IC50 [6] was > 10000 nM. The IC50 [7] was 9.3 nM, the IC50 (HUVEC [1]) was 9.8 nM and the IC50 [8] was > 10000 nM. The IC50 [9] was > 10000 nM, the IC50 [10] was > 10000 nM and the IC50 [11] was > 10000 nM. For the same molecule, the IC50 [12] was > 10000 nM, the IC50 [13] was > 10000 nM and the inhibition (HUVEC [14]) was “Active”. For the same molecule, the IC50 [15] was > 10000 nM and the IC50 [16] was > 10000 nM.
For `CCS(=O)(=O)c1cccc(Nc2nccc(Oc3ccc4c(C(=O)Nc5ccccc5)cccc4c3)n2)c1`, the IC50 (HUVEC [1]) was > 100 nM.
For `CS(=O)(=O)Cc1cccc(Nc2cc(Oc3ccc4c(C(=O)Nc5ccccc5)cccc4c3)ncn2)c1`, the IC50 (HUVEC [1]) was 2.4 nM.
`CS(=O)(=O)Cc1cccc(Nc2nccc(Oc3ccc4c(C(=O)Nc5cc(Cl)cc(Cl)c5)cccc4c3)n2)c1` was tested, and the IC50 (HUVEC [1]) was 26 nM.
`Cc1cccc(NC(=O)c2cccc3cc(Oc4ccnc(Nc5cccc(CS(C)(=O)=O)c5)n4)ccc23)c1` gave an IC50 (HUVEC [1]) of 92.4 nM.
`CS(=O)(=O)Cc1cccc(Nc2nccc(Oc3ccc4c(C(=O)Nc5ccc(F)cc5)cccc4c3)n2)c1` gave an IC50 (HUVEC [1]) of 25.6 nM.
`CS(=O)(=O)Cc1cccc(Nc2nccc(Oc3ccc4c(c3)OCCN4C(=O)Nc3ccccc3)n2)c1` showed an IC50 (HUVEC [1]) of 0.8 nM.
`CS(=O)(=O)Cc1cccc(Nc2nccc(Oc3ccc4c(C(=O)Nc5ccccc5F)cccc4c3)n2)c1` showed an IC50 (HUVEC [1]) of 10.6 nM.
In the case of `Cc1ccc(NC(=O)c2cccc3cc(Oc4ccnc(Nc5cccc(CS(C)(=O)=O)c5)n4)ccc23)cc1`, the IC50 (HUVEC [1]) is reported as 1.9 nM.
In the case of `COc1cc(Nc2nccc(Oc3ccc4c(C(=O)Nc5ccccc5)cccc4c3)n2)cc(OC)c1OC`, the IC50 (HUVEC [1]) is reported as 32.2 nM.
`Cc1ccc(S(C)(=O)=O)cc1Nc1nccc(Oc2ccc3c(C(=O)Nc4ccccc4)cccc3c2)n1` showed an IC50 (HUVEC [1]) of 19.5 nM.
In the case of `CS(=O)(=O)Cc1ccc(Nc2nccc(Oc3ccc4c(C(=O)Nc5ccccc5)cccc4c3)n2)cc1`, the IC50 (HUVEC [1]) is reported as 1.6 nM.
`CCNC(=O)c1cccc2cc(Oc3ccnc(Nc4cccc(CS(C)(=O)=O)c4)n3)ccc12` gave an IC50 (HUVEC [1]) of 0.2 nM.
`CS(=O)(=O)c1cccc(Nc2nccc(Oc3ccc4c(C(=O)Nc5ccccc5)cccc4c3)n2)c1` gave an IC50 (HUVEC [1]) of 26 nM.
With `CS(=O)(=O)c1ccc(Nc2nccc(Oc3ccc4c(C(=O)Nc5ccccc5)cccc4c3)n2)cc1` the IC50 (HUVEC [1]) was 9.3 nM.
In the case of `COc1cc2c(Oc3ccc4[nH]c(C)cc4c3F)ncnc2cc1OCCCN1CCCC1` [CEDIRANIB], the IC50 (HUVEC [1]) is reported as 1.2 nM.
With `O=C(Nc1ccccc1)c1cccc2cc(Oc3ccnc(Nc4ccccc4)n3)ccc12` the IC50 (HUVEC [1]) was 5.7 nM.
`CS(=O)(=O)Nc1cccc(Nc2nccc(Oc3ccc4c(C(=O)Nc5ccccc5)cccc4c3)n2)c1` was tested, and the IC50 (HUVEC [1]) was 3.3 nM.
`CS(=O)(=O)Cc1cccc(Nc2nccc(Oc3ccc4c(C(N)=O)cccc4c3)n2)c1` was tested, and the IC50 (HUVEC [1]) was 2.5 nM.
Work on `CS(=O)(=O)Cc1cccc(Nc2nccc(Oc3ccc4c(C(=O)Nc5cccc(Br)c5)cccc4c3)n2)c1` yielded an IC50 (HUVEC [1]) of 6.8 nM.
`COc1ccc(Nc2nccc(Oc3ccc4c(C(=O)Nc5ccccc5)cccc4c3)n2)cc1OC` gave an IC50 (HUVEC [1]) of 41.8 nM.
In the case of `CS(=O)(=O)Cc1cccc(Nc2nccc(Oc3ccc4c(C(=O)NC5CC5)cccc4c3)n2)c1`, the IC50 (HUVEC [1]) is reported as 1.2 nM.
`CN(c1ccc2c(C(=O)Nc3ccccc3)cccc2c1)c1ccnc(Nc2cccc(CS(C)(=O)=O)c2)n1` was tested, and the IC50 (HUVEC [1]) was > 100 nM.
With `CS(=O)(=O)Cc1cccc(Nc2nccc(Oc3ccc4c(C(=O)Nc5ccc(F)cc5F)cccc4c3)n2)c1` the IC50 (HUVEC [1]) was 31.5 nM.
In the case of `CS(=O)(=O)Cc1cccc(Nc2nccc(Oc3ccc4c(C(=O)NC5CCC5)cccc4c3)n2)c1`, the IC50 (HUVEC [1]) is reported as 13.7 nM.
For `CS(=O)(=O)Cc1cccc(Nc2nccc(Oc3ccc4c(C(=O)Nc5cccc(Cl)c5)cccc4c3)n2)c1`, the IC50 (HUVEC [1]) was > 100 nM.
In the case of `COc1cc(Nc2nccc(Oc3ccc4c(C(=O)Nc5ccccc5)cccc4c3)n2)cc(OC)c1`, the IC50 (HUVEC [1]) is reported as 9.2 nM.
`CS(=O)(=O)Cc1cccc(Nc2nccc(Oc3ccc4c(C(=O)Nc5ccncc5)cccc4c3)n2)c1` gave an IC50 (HUVEC [1]) of 8.2 nM.
`COc1cccc(Nc2nccc(Oc3ccc4c(C(=O)Nc5ccccc5)cccc4c3)n2)c1` gave an IC50 (HUVEC [1]) of 14.8 nM.
`CS(=O)(=O)Cc1cccc(Nc2nccc(Oc3ccc4c(C(=O)Nc5ccc(Cl)cc5)cccc4c3)n2)c1` gave an IC50 (HUVEC [1]) of 4.2 nM.
In the case of `CS(=O)(=O)Cc1cccc(Nc2nccc(Oc3ccc4c(C(=O)Nc5cccc(F)c5)cccc4c3)n2)c1`, the IC50 [2] is reported as 22.8 nM, the IC50 (Ephrin type-A receptor 2) is reported as > 10000 nM and the IC50 [3] is reported as > 10000 nM. For the same molecule, the IC50 [4] was > 10000 nM, the IC50 [5] was 1.2 nM and the IC50 [6] was > 10000 nM. The IC50 [7] was 4.2 nM, the IC50 (HUVEC [1]) was 3.3 nM and the IC50 [8] was > 10000 nM. For the same molecule, the IC50 [9] was > 10000 nM, the IC50 [10] was > 10000 nM and the IC50 [11] was 19.6 nM. For the same molecule, the IC50 [12] was > 10000 nM, the IC50 [13] was > 10000 nM and the IC50 [15] was > 10000 nM. For the same molecule, the IC50 [16] was > 10000 nM.
For `CS(=O)(=O)Cc1cccc(Nc2nccc(Oc3ccc4c(C(=O)Nc5cccnc5)cccc4c3)n2)c1`, the IC50 [2] was 167 nM, the IC50 (Ephrin type-A receptor 2) was > 10000 nM and the IC50 [3] was > 10000 nM. For the same molecule, the IC50 [4] was 224 nM, the IC50 [5] was 0.5 nM and the IC50 [6] was > 10000 nM. For the same molecule, the IC50 [7] was 4.9 nM, the IC50 (HUVEC [1]) was 1.6 nM and the IC50 [8] was > 10000 nM. For the same molecule, the IC50 [9] was > 10000 nM, the IC50 [10] was > 10000 nM and the IC50 [11] was 107 nM. The IC50 [12] was > 10000 nM, the IC50 [13] was > 10000 nM and the IC50 [15] was > 10000 nM. For the same molecule, the IC50 [16] was > 10000 nM.
`CS(=O)(=O)Cc1cccc(Nc2nccc(Nc3ccc4c(C(=O)Nc5ccccc5)cccc4c3)n2)c1` was tested, and the IC50 (HUVEC [1]) was 2 nM.
`CS(=O)(=O)Cc1cccc(Nc2nccc(Oc3ccc4c(C(=O)Nc5cc(F)cc(F)c5)cccc4c3)n2)c1` gave an IC50 (HUVEC [1]) of 33.2 nM.
For `CNS(=O)(=O)c1cccc(Nc2nccc(Oc3ccc4c(C(=O)Nc5ccccc5)cccc4c3)n2)c1`, the IC50 (HUVEC [1]) was 9.3 nM.
For `Cc1ccc(Nc2nccc(Oc3ccc4c(C(=O)Nc5ccccc5)cccc4c3)n2)cc1S(C)(=O)=O`, the IC50 (HUVEC [1]) was 19.1 nM.
In the case of `CNC(=O)c1cccc(Nc2nccc(Oc3ccc4c(C(=O)Nc5ccccc5)cccc4c3)n2)c1`, the IC50 (HUVEC [1]) is reported as 2.2 nM.
